This note sets out measurements from PubChem BioAssay (NCI).

Some test systems named below: HS 578T breast; A549 NSCLC; TK-10 renal; A498 renal; PC-3 prostate; DU-145 prostate; OVCAR-4 ovarian; SK-MEL-28 melanoma; K-562 leukemia; HCC-2998 colon.
Holding throughout (test): inhibition of tumour cell growth, NCI panel, 48 h

“And” between values parts separate entries of the source, which are not always exact repeats. Equal values may be shown once.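 Test compounds were applied to cells in 96-well plates for 48 hours at 5 doses. GI50 marks 50% less growth. TGI is the concentration that stops growth completely.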 Where only a bound is given, the exact number is not on record here.

Regarding `OCC#Cc1ccccc1C#Cc1ccc(C#Cc2ccccc2C#CCO)cc1`, the GI50 in the assay with HS 578T breast was 24.3 µM; in the assay with A549 NSCLC, 32.7 µM; in the assay with TK-10 renal it was 52.8 µM; in the assay with A498 renal, 28.9 µM; in the assay with PC-3 prostate it was 30.7 µM; in the assay on DU-145 prostate, 27.3 µM. For the same molecule, the GI50 was 65.8 µM in the assay on OVCAR-4 ovarian, more than 100 µM with SK-MEL-28 melanoma and 34 µM in the assay on K-562 leukemia. Further, the TGI in the assay on HS 578T breast was 58.7 µM; in the assay on A549 NSCLC, more than 100 µM; in the assay with TK-10 renal it was more than 100 µM; in the assay with A498 renal it was 95.7 µM; in the assay on PC-3 prostate, more than 100 µM; in the assay on DU-145 prostate, 91.3 µM. Also, the TGI with OVCAR-4 ovarian, in the assay with SK-MEL-28 melanoma and in the assay with K-562 leukemia was more than 100 µM in each case.
Consider `COc1ccc(OC)c(-c2cc(-c3ccc(Cl)cc3)nn2-c2ccccc2)c1`, for which the GI50 with HS 578T breast was 18.5 µM; with A549 NSCLC, 65.8 µM; in the assay with HCC-2998 colon, 26.4 µM; in the assay on TK-10 renal, 26.1 µM; in the assay on A498 renal it was 6.57 µM; in the assay with PC-3 prostate, 24.2 µM. Moreover, the values for the GI50 in the assay with DU-145 prostate and in the assay with K-562 leukemia were 96.7 µM and 5.89 µM, respectively. Also, the TGI with HS 578T breast is more than 100 µM; with A549 NSCLC it was more than 100 µM; in the assay on HCC-2998 colon, 52.8 µM; with TK-10 renal, 88.2 µM; in the assay on A498 renal, 59.7 µM; in the assay with PC-3 prostate, more than 100 µM. Further, the TGI in the assay on DU-145 prostate was more than 100 µM; in the assay on K-562 leukemia, 42.4 µM.
On to `CC1(C)N=C(N)N=C(N)N1c1cccc(CCCCc2ccc(Cl)c(S(=O)(=O)F)c2)c1`, for which the GI50 with HS 578T breast was 12.6 µM; in the assay on A549 NSCLC, 4.38 µM; in the assay with HCC-2998 colon, 1.92 µM; with TK-10 renal, 10.7 µM; in the assay on A498 renal, 16.4 µM; in the assay on DU-145 prostate it was 4.09 µM. Besides, the GI50 was 11.8 µM with OVCAR-4 ovarian, 7.67 µM with SK-MEL-28 melanoma and 0.521 µM with K-562 leukemia. For the same molecule, the TGI in the assay on HS 578T breast worked out at 35.9 µM; with A549 NSCLC, 36 µM; with HCC-2998 colon it was 16 µM; in the assay on TK-10 renal, 39.3 µM; with A498 renal, 52.9 µM; in the assay with DU-145 prostate it was 17.1 µM. Moreover, the TGI was 29.6 µM in the assay on OVCAR-4 ovarian, 21.2 µM with SK-MEL-28 melanoma and 15.2 µM in the assay with K-562 leukemia.
In the case of `[Mn+3].[O-][Cl+3]([O-])([O-])O.[O-]c1ccccc1C=NCCN1CC1.[O-]c1ccccc1C=NCCN1CC1`, the GI50 with HS 578T breast is 33.6 µM; in the assay with A549 NSCLC it was 38.6 µM; in the assay on TK-10 renal it was 50.7 µM; with A498 renal it was more than 100 µM; with PC-3 prostate it was 19.9 µM; with DU-145 prostate, 22.7 µM. Also, the GI50 with OVCAR-4 ovarian is 15.4 µM; in the assay with SK-MEL-28 melanoma, 35.8 µM; in the assay with K-562 leukemia, 20.5 µM. For the same molecule, the TGI in the assay with HS 578T breast, in the assay on A549 NSCLC, with TK-10 renal, in the assay with A498 renal, in the assay with PC-3 prostate and in the assay on DU-145 prostate was more than 100 µM throughout. Besides, the TGI was more than 100 µM with OVCAR-4 ovarian, more than 100 µM in the assay with SK-MEL-28 melanoma and 42.4 µM in the assay with K-562 leukemia.
On to `COC(=O)[C@@H](C)C[C@H](Cc1ccccc1)NC(=O)c1csc([C@@H](C[C@H](C(C)C)N(C)C(=O)[C@@H](NC(=O)[C@H]2CCCCN2C)c2ccc(F)cc2)OC(C)=O)n1`, for which the TGI in the assay with HS 578T breast is more than 100 µM; in the assay with A549 NSCLC it was 25 µM and > 100 µM; with HCC-2998 colon, 25 µM and > 100 µM; in the assay with TK-10 renal it was 25 µM and > 100 µM; with A498 renal, more than 100 µM; in the assay with PC-3 prostate, 25 µM and 28.3 µM. Besides, the TGI in the assay with OVCAR-4 ovarian was 25 µM and > 100 µM; with SK-MEL-28 melanoma it was more than 100 µM; in the assay with K-562 leukemia, 25 µM and 20.8 µM. Besides, the GI50 in the assay with A498 renal is 0.0216 µM and 0.127 µM.
On to `CC1(C)CC[C@]2(C(=O)NCCNCCN)CC[C@]3(C)C(=CC[C@@H]4[C@@]5(C)CCC(=O)C(C)(C)[C@@H]5CC[C@]43C)[C@@H]2C1`, for which the GI50 was 1.92 µM in the assay with HS 578T breast; 1.73 µM in the assay with HCC-2998 colon; 1.91 µM in the assay on TK-10 renal; 8.01 µM in the assay on A498 renal; 1.82 µM with PC-3 prostate; 1.85 µM in the assay with DU-145 prostate. Moreover, the values for the GI50 in the assay with OVCAR-4 ovarian, in the assay with SK-MEL-28 melanoma and in the assay with K-562 leukemia were 1.89 µM, 1.75 µM and 2.74 µM, respectively. Moreover, the TGI in the assay with HS 578T breast turned out to be 4.17 µM; in the assay on HCC-2998 colon, 3.18 µM; with TK-10 renal, 4.1 µM; in the assay on A498 renal, 23.6 µM; in the assay on PC-3 prostate, 3.61 µM; in the assay with DU-145 prostate it was 3.41 µM. For the same molecule, the TGI was 3.66 µM with OVCAR-4 ovarian, 3.2 µM in the assay with SK-MEL-28 melanoma and more than 100 µM in the assay on K-562 leukemia.
`COc1ccc(NC(=O)c2ccc(C(F)(F)F)nc2Nc2ccc(Cl)cc2C)cc1Cl`: the GI50 is 6.9 µM with HS 578T breast; 5.39 µM with A549 NSCLC; 17.3 µM in the assay on TK-10 renal; 5.02 µM with A498 renal; 3.53 µM with PC-3 prostate; 3.75 µM in the assay on DU-145 prostate. In addition, the GI50 with OVCAR-4 ovarian was 3.18 µM; with SK-MEL-28 melanoma it was 5.2 µM; in the assay with K-562 leukemia it was 2.42 µM. In addition, the TGI was 28.3 µM in the assay with HS 578T breast; 20.6 µM in the assay with A549 NSCLC; 41.6 µM with TK-10 renal; 17.5 µM in the assay on A498 renal; 12.1 µM in the assay on PC-3 prostate; 14.2 µM in the assay with DU-145 prostate. Also, the results for the TGI in the assay on OVCAR-4 ovarian, with SK-MEL-28 melanoma and in the assay on K-562 leukemia were 17.5 µM, 16.9 µM and 10.6 µM, respectively.
On to `O=c1cccccc1O`, for which the TGI in the assay with HS 578T breast, in the assay on A549 NSCLC, in the assay on HCC-2998 colon, with TK-10 renal, in the assay on PC-3 prostate and in the assay on DU-145 prostate was more than 100 µM throughout. Also, the TGI with OVCAR-4 ovarian, with SK-MEL-28 melanoma and in the assay with K-562 leukemia was more than 100 µM throughout.
As to `Oc1cccc2cccnc12`, the GI50 in the assay with HS 578T breast was more than 100 µM; with A549 NSCLC it was 6.17 µM and 16.4 µM and 5.97 µM; in the assay on TK-10 renal, 51.5 µM and 8.42 µM and 47.7 µM; in the assay with DU-145 prostate it was 20.9 µM and 68.8 µM and 18.2 µM; with OVCAR-4 ovarian it was 6.13 µM and 19.9 µM and 3.37 µM; with SK-MEL-28 melanoma it was 16.9 µM and > 100 µM and > 55.5 µM. For the same molecule, the TGI with HS 578T breast was more than 100 µM; in the assay with A549 NSCLC it was more than 100 µM; in the assay on HCC-2998 colon, 28 µM and > 100 µM and 47.9 µM; with TK-10 renal, more than 100 µM; with A498 renal, 27.7 µM and 56.4 µM and > 100 µM; in the assay with DU-145 prostate, more than 100 µM. The TGI in the assay on OVCAR-4 ovarian was > 87.6 µM and 83.3 µM and > 100 µM; with SK-MEL-28 melanoma it was more than 100 µM; in the assay with K-562 leukemia it was 21.7 µM and > 100 µM and > 23.3 µM.
